We go through 1 compound from US12011433B2 (UNIVERSITÁ DEGLI STUDI DI BARI “ALDO MORO”, priority 2016, dated 2024).

One series concerns BV2 microglial cells. Nature of the series: BV2 microglial cell viability, MTT reduction assay. In kind it is cell-based. The settings on record: 24 h, P6 0.5 and 1 μM, mofezolac 0.1 and 0.5 μM, alone or with LPS. How it is done:
(§1) Cells were then incubated for different times at 37° C. with LPS, as pro-inflammatory stimulus. Experiments included cells grown in medium alone (control).
Cell viability of microglial cells was quantified using the MTT reduction assay. The cells (8×10^3/well) were grown in 96-well plates (Becton Dickinson Labware) in complete medium and treated with different concentration of COX inhibitors, in presence or absence of LPS. Untreated cells were used as a control. A PBS 1× solution of MTT (5 mg/mL) was prepared and added to the cell medium at a final concentration of 0.5 mg/mL. Cells were incubated for 4 h at 37° C. and 5% CO2 to allow the MTT metabolism. The formazan crystals formed (from MTT) into the cells were solubilized with DMSO (Sigma-Aldrich). The levels of MTT formazan were determined measuring the optical density at λ=560 nm and subtracting the background (λ=670 nm) with a Victor Multiplate Reader (Wallac). Optical density was directly correlated to cell quantity.
On the technique in general: Tetrazolium assays rely on reduction of a dye to a coloured formazan, in cell work by metabolically active cells.

The test system of the next series is GFAP. Kind of series: astroglial activation in LPS-treated mice, GFAP immunoreactivity and immunoblotting. The format is in vivo. How it is done: (§2) The protein concentration in the supernatant was spectrophotometrically determined by Bradford's protein assay (Bradford, 1976). […] Proteins (25 μg/lane) and prestained standards (BioRad Laboratories, Hercules, CA, USA) were loaded on 7% or 12% SDS precast polyacrylamide gels (BioRad Laboratories). After electrophoresis, the resolved proteins were transferred from the gel to nitrocellulose membranes. A blotting buffer [20 mMTris/150 mM glycine, pH=8.0, 20% (v/v) methanol] was used for gel and membrane saturation and blotting. […] Bands were visualized by chemiluminescence detection (Invitrogen, Milan, Italy). The β-actin level was used as a protein loading control. For tissue analysis, obtained bands were normalized to the level of β-actin performed for each cerebral area tested. For cell cultures the bands were normalized to the β-actin level in each experimental condition. […] VM in all the Figures) once a day for 10 days. […] On the seventh day, mice were anesthetized with tribromoethanol (250 mg/Kg, i.p.) and positioned in a stereotactic apparatus (Kopf Instruments, Tujunga, CA, USA). […] Immunohistochemistry was performed following a standard avidin-biotin complex procedure. […]
A general note: A western blot detects proteins with antibodies after separation by electrophoresis.

A further series has as its system Iba-1. Kind of series: microglial activation in LPS-treated mice, Iba-1 immunoreactivity and immunoblotting. In kind it is in vivo. How it is done:
as §2

A further series addresses COX-1 (Mus musculus (Mouse), UniProt P22437). Kind of series: COX-1 expression in LPS-treated BV2 microglial cells, western blotting. The format is cell-based. As to the method: as §1
(§3) The tissue and cell culture lysates were vortexed for 15-20 s and, then, centrifuged at 12,800×g for 20 min. The protein concentration in the supernatant was spectrophotometrically determined by Bradford's protein assay (Bradford, 1976). Protein samples were diluted with sample buffer (0.5 M Tris-HCl pH=6.8, 10% glycerol, 10% (w/v) SDS, 5% 2-mercaptoethanol, 0.05% (w/v) bromophenol blue) and then boiled for 3 min. Proteins (25 μg/lane) and prestained standards (BioRad Laboratories, Hercules, CA, USA) were loaded on 7% or 12% SDS precast polyacrylamide gels (BioRad Laboratories).
(§4) After electrophoresis, the resolved proteins were transferred from the gel to nitrocellulose membranes. A blotting buffer [20 mMTris/150 mM glycine, pH=8.0, 20% (v/v) methanol] was used for gel and membrane saturation and blotting. Then, membranes were incubated in the dark with 1 μg/mL mouse monoclonal antibody (MoAb) anti-COX-1 and rabbit polyclonal Ab anti-COX-2 (1:1000) (both from AbCam, Cambridge, UK), rabbit polyclonal Ab anti p-IkB-α (1:200), mouse polyclonal Ab anti β-actin (1:500) (all from Santa Cruz Biotechnology), mouse MoAb anti-glial fibrillary acidic protein (GFAP) (1:200) and mouse mAb anti-ionized calcium-binding adapter molecule-1 (Iba-1) (1:200) (both from Merck Millipore) overnight at 4° C. The membranes were washed with 0.1% Tween 20-PBS (for 20 min, 3 times) and then incubated with the secondary antibody diluted 1:2000 for 60 min. Bands were visualized by chemiluminescence detection (Invitrogen, Milan, Italy). The β-actin level was used as a protein loading control. For tissue analysis, obtained bands were normalized to the level of β-actin performed for each cerebral area tested. For cell cultures the bands were normalized to the β-actin level in each experimental condition.

A further series concerns the target COX-2 (Mus musculus (Mouse), UniProt Q05769). Kind of series: COX-2 expression in brain regions of LPS-treated mice, immunoblotting. In kind it is in vivo. The settings on record: for COX-2 expression reduction (%): mofezolac 6 mg/kg i.p. As to the method: Substantia nigra pars compacta (SNpc), Hippocampus, Frontal lobe and Caudate from mice brains were minced in ice-cold PBS, washed and then homogenized in a buffer containing lysis buffer (50 mM Tris pH 8, 0.02 g/mL NaCl, 0.2% SDS, 1% Triton-X, 4 U/ml aprotinin, 2 mM leupeptin, 100 mM phenylmethanesulfonyl fluoride).
as §3, §4
On the seventh day, mice were anesthetized with tribromoethanol (250 mg/Kg, i.p.) and positioned in a stereotactic apparatus (Kopf Instruments, Tujunga, CA, USA). […] Sterotaxic injections coordinates were: 2.3 mm dorsal/ventral, 1.0 mm lateral, and 0.5 mm anterior/posterior from the bregma.

Another series concerns PGE2. Nature of the series: PGE2 release in LPS-stimulated BV2 microglial cells, competitive binding immunoassay. The format is cell-based. The settings on record: for PGE2 release (ng/ml) at 48 h: LPS-stimulated BV2 cells; for PGE2 production reduction: LPS-treated BV2 cells. As to the method: Microglial cells were cultured in 6-well plates at a density of 3×10^6 cells/well. […] The cultures were maintained at 37° C. for 24 and 48 h in a humidified air containing a 5% CO2. PGE2 levels were determined in the supernatant using a competitive binding immunoassay (Cayman Chemical, Ann Arbor, MI, USA) following the manufacturer's instructions. Unstimulated cells were included as a control. PGE2 amount determination in the brain was performed in the tissue extracts, according to the manufacturer's instructions. The optical density was measured at λ=405-420 nm with precision microplate reader and the amount of PGE2 (ng/mL) was calculated using a PGE2 standard curve.

[1] abbreviates: immunoblotting, mofezolac + LPS vs LPS alone.

With `COc1ccc(-c2noc(CC(=O)O)c2-c2ccc(OC)cc2)cc1` [mofezolac, 2-(3,4-bis(4-methoxyphenyl)isoxazol-5-yl)acetic acid], in the series on BV2 microglial cells, the cell toxicity result is given as “No cell toxicity”. In addition, the GFAP levels entry with GFAP (setting [1]) is “significantly reduced”. In the series with GFAP (immunohistochemistry, LPS-treated mice, mofezolac 6 mg/kg i.p., all the tested brain areas), the GFAP immunoreactive cells result is “reduced the presence of GFAP immunoreactive cells”. Also, in the series on Iba-1 (setting [1]), the Iba-1 levels entry is recorded as “significantly reduced”. The Iba-1 immunoreactivity result in the series with Iba-1 (immunohistochemistry, LPS-injected mice, mofezolac 6 mg/kg i.p., all the tested brain areas) is “reduction of Iba-1 immunoreactivity”. Further, on COX-1 (BV2 cells, 48 h of incubation with LPS, 1 h pre-treated), the COX-1 expression levels result is listed as “significantly reduced”. In addition, on COX-1 (LPS-activated BV2 cells, independently from its concentration (0.1 and 0.5 μM)), the COX-1 expression reduction turned out to be 78%. Further, the “COX-2 expression reduction (%)” value at COX-2 (Caudate), on COX-2 (Frontal lobe), at COX-2 (Hippocampus) and at COX-2 (Substantia nigra) was 0% in each case. Also, the “effect on COX-2 modulation” value at COX-2 (all tested brain regions) was “no effect”. Also, the “PGE2 release (ng/ml) at 48 h” value in the series on PGE2 (0.1 μM inhibitor + LPS) is 0.06 ng/mL; in the series on PGE2 (0.5 μM inhibitor + LPS), 0.03 ng/mL. Besides, the PGE2 production reduction is listed as 94% with PGE2 (at 0.5 μM as printed in the text) and 97% with PGE2 (at 1 μM as printed in the text).
